Tests used:
[1] = molecular target: T1, Beta-lactoglobulin (Bos taurus, UniProt P02754); experiment: NR-Cl binding to individual whey proteins (cutoff filter method); details: 1 mmol/L each of protein and NR-Cl
T1 sequence (P02754 17-178): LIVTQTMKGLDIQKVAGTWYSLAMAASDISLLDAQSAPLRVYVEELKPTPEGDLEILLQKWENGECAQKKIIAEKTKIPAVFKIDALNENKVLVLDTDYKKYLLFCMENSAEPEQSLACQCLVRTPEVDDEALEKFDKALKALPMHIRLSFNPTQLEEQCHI
Description: (§1) A. Solutions of hydrolyzed whey protein isolate (>90% protein, 2-7% degree of hydrolysis) were prepared at varying concentrations and filtered through 0.2 μm sterile filters. An aliquot of sterile nicotinamide riboside chloride (“NR-Cl,” a salt of NR, I) in water solution was spiked into the sterile whey solutions, targeting a final NR-Cl concentration of 1 mmol per liter (0.3 mg/mL). The solutions containing the mixture of hydrolyzed whey and NR-Cl were filtered through 10 kDa molecular weight cutoff centrifuge filters to remove the whey proteins (14-80 kDa) and any NR-Cl that was bound to the proteins. Any NR-Cl that was not bound to the whey proteins was recovered in the filtrate and quantitated by HPLC.
(§2) The solutions were prepared with 1 mmol/L each of protein and NR-Cl. NR-Cl binding to one or more of these individual proteins could be responsible for the enhanced stability of NR-Cl seen in hydrolyzed whey protein isolate.

[2] = molecular target: Lactoferrin (Bos taurus, UniProt P24627); experiment: as above; details: 1 mmol/L each of protein and NR-Cl
Chain of Lactoferrin (P24627 20-708): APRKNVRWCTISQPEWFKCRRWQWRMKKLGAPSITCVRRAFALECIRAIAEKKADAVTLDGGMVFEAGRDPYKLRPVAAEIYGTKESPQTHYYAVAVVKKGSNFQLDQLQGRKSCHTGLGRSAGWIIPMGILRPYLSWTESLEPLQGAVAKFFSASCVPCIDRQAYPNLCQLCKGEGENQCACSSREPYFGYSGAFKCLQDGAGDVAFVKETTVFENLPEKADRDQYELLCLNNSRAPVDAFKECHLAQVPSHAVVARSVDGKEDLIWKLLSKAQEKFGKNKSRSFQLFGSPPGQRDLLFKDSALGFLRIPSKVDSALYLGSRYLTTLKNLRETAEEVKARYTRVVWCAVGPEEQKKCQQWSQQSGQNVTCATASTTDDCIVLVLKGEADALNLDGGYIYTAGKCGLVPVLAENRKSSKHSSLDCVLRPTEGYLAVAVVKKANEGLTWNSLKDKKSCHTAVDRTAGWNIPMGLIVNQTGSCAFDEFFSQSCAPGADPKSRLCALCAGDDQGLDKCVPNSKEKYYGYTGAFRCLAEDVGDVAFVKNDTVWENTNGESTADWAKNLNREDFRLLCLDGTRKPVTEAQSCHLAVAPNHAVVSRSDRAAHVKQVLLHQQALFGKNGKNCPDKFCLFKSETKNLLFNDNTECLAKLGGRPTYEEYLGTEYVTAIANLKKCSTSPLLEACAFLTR
Description: as §1, §2

[3] = molecular target: Transferrin (Bos taurus, UniProt Q29443); experiment: as above; details: 1 mmol/L each of protein and NR-Cl
Chain of Transferrin (Q29443 20-704): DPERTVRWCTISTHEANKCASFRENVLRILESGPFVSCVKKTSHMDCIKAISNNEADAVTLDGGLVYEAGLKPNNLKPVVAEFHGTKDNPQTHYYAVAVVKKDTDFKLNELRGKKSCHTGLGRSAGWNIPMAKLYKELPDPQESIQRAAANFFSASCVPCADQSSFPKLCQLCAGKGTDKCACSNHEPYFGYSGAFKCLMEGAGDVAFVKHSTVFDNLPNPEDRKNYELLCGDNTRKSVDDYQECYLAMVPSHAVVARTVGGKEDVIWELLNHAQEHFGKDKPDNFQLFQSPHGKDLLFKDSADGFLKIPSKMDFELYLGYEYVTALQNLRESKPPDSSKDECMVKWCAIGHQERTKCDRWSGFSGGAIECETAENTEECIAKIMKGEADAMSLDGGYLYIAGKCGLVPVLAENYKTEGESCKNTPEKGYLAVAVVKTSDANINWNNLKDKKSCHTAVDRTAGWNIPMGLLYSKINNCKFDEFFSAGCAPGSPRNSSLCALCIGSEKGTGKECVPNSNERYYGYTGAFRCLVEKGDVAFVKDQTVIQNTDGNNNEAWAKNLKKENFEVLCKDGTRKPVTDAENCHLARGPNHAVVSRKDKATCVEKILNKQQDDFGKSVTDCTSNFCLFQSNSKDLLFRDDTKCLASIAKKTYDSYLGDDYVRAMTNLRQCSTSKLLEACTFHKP
Description: as §1, §2

[4] = system: milk concentrate proteins; experiment: WaterLOGSY NMR binding of NR-Cl; details: pH 7.0
Description: (§3) WaterLOGSY is a sensitive ligand-observed NMR experiment designed for the screening of protein ligands from a mixture of potential binders. […] The experiment relies on fast dissociation of bound ligands to carry into the free state magnetisation originating from irradiated water that has been transmitted via the protein complex.
(§4) NMR samples for WaterLOGSY were prepared as follows. Ligand-detect WaterLOGSY experiments were carried at 600 MHz with 5-mm cryoprobe and using 5-mm NMR tubes. Each NMR sample for WaterLOGSY contained ˜0.05 mg (˜0.35 mM), using unlabeled ligand NR-Cl (“NR”), in a NMR buffer containing ˜0.5 mL 90% H2O/10% ^2H2O at pH 7.0 with or without the milk and soy protein mix (compared to the WaterLOGSY of NR as a negative control). Protein was added as a powder with a minimal 15 to 50 μM concentration. Typically, the final NMR sample of protein-compound mixtures had >20-fold higher compound concentration of ligand compared to that of the protein. Denatured samples were prepared by simply heating (80° C. for 15-20 mins) the aqueous (5-10% ^2H2O) protein mixture (in absence of NR).
The NR only WaterLOGSY spectrum (FIG. 23) was the negative control to screen for any potential binding of NR-Cl to milk concentrate and soy isolate proteins as shown herein and discussed below.

[5] = system: soy isolate proteins; experiment: WaterLOGSY NMR binding of NR-Cl; details: native vs denatured, pH 7.0
Description: as §3, §4

[6] = system: hydrolyzed whey protein isolate; experiment: NR-Cl binding to hydrolyzed whey protein isolate (10 kDa cutoff filtration, unbound NR-Cl in filtrate by HPLC)
Description: as §1
(§5) The solutions of hydrolyzed whey protein isolate and NR-Cl were stored at ambient and refrigerated conditions and analyzed at various timepoints for NR-Cl protein binding and stability.
(§6) A study measuring the stability of NR-Cl in hydrolyzed and non-hydrolyzed whey protein was conducted with 2 mmol/L NR-Cl (0.6 mg/mL) and 20 mg/mL protein (33.3:1 wt:wt protein:NR-Cl). […] (See Table 5).

[7] = system: non-hydrolyzed whey protein; experiment: NR-Cl binding to non-hydrolyzed whey protein isolate (cutoff filter method); details: Non-Hydrolyzed Whey Protein Isolate 20 mg/mL, 2 mmol/L NR-Cl (33.3:1 wt:wt)
Description: as §1, §6

[8] = Stability of NR-Cl in whey protein isolate solutions (% nicotinamide degradant, vs control of NR-Cl in water only); assay type: physicochemical; details: for increase in nicotinamide: after 1 day at refrigerated conditions
Description: as §1, §5, §6

[9] = Hydrolyzed Whey Protein Isolate 20 mg/mL, 2 mmol/L NR-Cl (33.3:1 wt:wt), 0 days refrigerated
[10] = Hydrolyzed Whey Protein Isolate 20 mg/mL, 2 mmol/L NR-Cl (33.3:1 wt:wt), 1 day refrigerated
[11] = hydrolyzed whey:NR-Cl 18.3:1 (wt:wt), 0 days ambient
[12] = hydrolyzed whey:NR-Cl 18.3:1 (wt:wt), 0 days refrigerated
[13] = hydrolyzed whey:NR-Cl 18.3:1 (wt:wt), 3 days ambient
[14] = hydrolyzed whey:NR-Cl 18.3:1 (wt:wt), 5 days ambient
[15] = hydrolyzed whey:NR-Cl 18.3:1 (wt:wt), 7 days ambient
[16] = hydrolyzed whey:NR-Cl 18.3:1 (wt:wt), 30 days refrigerated
[17] = hydrolyzed whey:NR-Cl 37:1 (wt:wt), 0 days ambient
[18] = hydrolyzed whey:NR-Cl 37:1 (wt:wt), 0 days refrigerated
[19] = hydrolyzed whey:NR-Cl 37:1 (wt:wt), 3 days ambient
[20] = hydrolyzed whey:NR-Cl 37:1 (wt:wt), 5 days ambient
[21] = hydrolyzed whey:NR-Cl 37:1 (wt:wt), 7 days ambient
[22] = hydrolyzed whey:NR-Cl 37:1 (wt:wt), 30 days refrigerated
[23] = hydrolyzed whey:NR-Cl 73:1 (wt:wt), 0 days ambient
[24] = hydrolyzed whey:NR-Cl 73:1 (wt:wt), 0 days refrigerated
[25] = hydrolyzed whey:NR-Cl 73:1 (wt:wt), 3 days ambient
[26] = hydrolyzed whey:NR-Cl 73:1 (wt:wt), 5 days ambient
[27] = hydrolyzed whey:NR-Cl 73:1 (wt:wt), 7 days ambient
[28] = hydrolyzed whey:NR-Cl 73:1 (wt:wt), 30 days refrigerated
[29] = hydrolyzed whey:NR-Cl 147:1 (wt:wt), 0 days ambient
[30] = hydrolyzed whey:NR-Cl 147:1 (wt:wt), 3 days ambient
[31] = hydrolyzed whey:NR-Cl 147:1 (wt:wt), 5 days ambient
[32] = hydrolyzed whey:NR-Cl 147:1 (wt:wt), 7 days ambient
[33] = hydrolyzed whey:NR-Cl 293:1 (wt:wt), 0 days ambient
[34] = hydrolyzed whey:NR-Cl 293:1 (wt:wt), 3 days ambient
[35] = hydrolyzed whey:NR-Cl 293:1 (wt:wt), 7 days ambient

Structure (SMILES): NC(=O)c1ccc[n+]([C@@H]2O[C@H](CO)[C@@H](O)[C@H]2O)c1.[Cl-] [NR-Cl, nicotinamide riboside chloride]
- % NR-Cl Bound to Protein [1]: 66%
- % NR-Cl Bound to Protein [2]: 28%
- % NR-Cl Bound to Protein [3]: 15%
- WaterLOGSY binding ([4]; denatured milk concentrate (80° C. for 15-20 mins)): decreased binding
- WaterLOGSY binding ([4]; milk concentrate): evidence of positive binding
- WaterLOGSY binding [5]: increase in binding with NR-Cl only after denaturation
- fraction of NR-Cl bound to whey protein over the course of the experiments ([6]; 7 days ambient, 30 days refrigerated): remain stable
- % NR-Cl Bound to Protein [6, 9]: 55%
- % NR-Cl Bound to Protein [6, 10]: 56%
- % NR-Cl Bound to Protein ([6]; hydrolyzed whey protein isolate:NR-Cl 18.3:1 (wt:wt), 1 mmol/L NR-Cl): 41%
- % NR-Cl Bound to Protein ([6]; hydrolyzed whey protein isolate:NR-Cl 37:1 (wt:wt), 1 mmol/L NR-Cl): 47%
- % NR-Cl Bound to Protein ([6]; hydrolyzed whey protein isolate:NR-Cl 73:1 (wt:wt), 1 mmol/L NR-Cl): 60%
- % NR-Cl Bound to Protein ([6]; hydrolyzed whey protein isolate:NR-Cl 147:1 (wt:wt), 1 mmol/L NR-Cl): 65%
- % NR-Cl Bound to Protein ([6]; hydrolyzed whey protein isolate:NR-Cl 293:1 (wt:wt), 1 mmol/L NR-Cl): 67%
- % NR-Cl Bound to Protein [6, 11]: 41%
- % NR-Cl Bound to Protein [6, 12]: 41%
- % NR-Cl Bound to Protein [6, 13]: 44%
- % NR-Cl Bound to Protein [6, 14]: 45%
- % NR-Cl Bound to Protein [6, 15]: 43%
- % NR-Cl Bound to Protein [6, 16]: 24%
- % NR-Cl Bound to Protein [6, 17]: 47%
- % NR-Cl Bound to Protein [6, 18]: 47%
- % NR-Cl Bound to Protein [6, 19]: 55%
- % NR-Cl Bound to Protein [6, 20]: 54%
- % NR-Cl Bound to Protein [6, 21]: 54%
- % NR-Cl Bound to Protein [6, 22]: 45%
- % NR-Cl Bound to Protein [6, 23]: 60%
- % NR-Cl Bound to Protein [6, 24]: 60%
- % NR-Cl Bound to Protein [6, 25]: 66%
- % NR-Cl Bound to Protein [6, 26]: 65%
- % NR-Cl Bound to Protein [6, 27]: 65%
- % NR-Cl Bound to Protein [6, 28]: 57%
- % NR-Cl Bound to Protein [6, 29]: 65%
- % NR-Cl Bound to Protein [6, 30]: 71%
- % NR-Cl Bound to Protein [6, 31]: 72%
- % NR-Cl Bound to Protein [6, 32]: 69%
- % NR-Cl Bound to Protein [6, 33]: 67%
- % NR-Cl Bound to Protein [6, 34]: 62%
- % NR-Cl Bound to Protein [6, 35]: 72%
- % NR-Cl Bound to Protein ([7]; 0 days refrigerated): 49%
- % NR-Cl Bound to Protein ([7]; 1 day refrigerated): 54%
- % Nicotinamide ([8]; Control (NR-Cl in water only), 0 days ambient): 0.2%
- % Nicotinamide ([8]; Control (NR-Cl in water only), 0 days refrigerated): 0.2%
- % Nicotinamide ([8]; Control (NR-Cl in water only), 3 days ambient): 3.8%
- % Nicotinamide ([8]; Control (NR-Cl in water only), 5 days ambient): 4.8%
- % Nicotinamide ([8]; Control (NR-Cl in water only), 7 days ambient): 5.3%
- % Nicotinamide ([8]; Control (NR-Cl in water only), 30 days refrigerated): 2.3%
- % Nicotinamide [8, 9]: 0.1%
- % Nicotinamide [8, 10]: 0.1%
- % Nicotinamide ([8]; Non-Hydrolyzed Whey Protein Isolate 20 mg/mL, 2 mmol/L NR-Cl (33.3:1 wt:wt), 0 days refrigerated): 0.3%
- % Nicotinamide ([8]; Non-Hydrolyzed Whey Protein Isolate 20 mg/mL, 2 mmol/L NR-Cl (33.3:1 wt:wt), 1 day refrigerated): 5.4%
- increase in nicotinamide ([8]; hydrolyzed whey solution): did not show any increase
- % Nicotinamide [8, 11]: 0.1%
- % Nicotinamide [8, 12]: 0.1%
- % Nicotinamide [8, 13]: 2.2%
- % Nicotinamide [8, 14]: 3.3%
- % Nicotinamide [8, 15]: 3.9%
- % Nicotinamide [8, 16]: 1.5%
- % Nicotinamide [8, 17]: 0.2%
- % Nicotinamide [8, 18]: 0.2%
- % Nicotinamide [8, 19]: 2.1%
- % Nicotinamide [8, 20]: 3.1%
- % Nicotinamide [8, 21]: 3.8%
- % Nicotinamide [8, 22]: 1.4%
- % Nicotinamide [8, 23]: 0.2%
- % Nicotinamide [8, 24]: 0.2%
- % Nicotinamide [8, 25]: 2.4%
- % Nicotinamide [8, 26]: 3.2%
- % Nicotinamide [8, 27]: 4.2%
- % Nicotinamide [8, 28]: 1.6%
- % Nicotinamide [8, 29]: 0.3%
- % Nicotinamide [8, 30]: 2.4%
- % Nicotinamide [8, 31]: 3.4%
- % Nicotinamide [8, 32]: 4.1%
- % Nicotinamide [8, 33]: 0.6%
- % Nicotinamide [8, 34]: 2.8%
- % Nicotinamide [8, 35]: 4.4%
- increase in nicotinamide ([8]; non-hydrolyzed whey solution): 5%
